# Experiments:
# CutC (choline TMA lyase) [1] = molecular target: T1, CutC (choline TMA lyase) (Proteus mirabilis, UniProt B4EYG1); test: anaerobic d9-TMA production with purified CutC and CutD, LC/MS/MS; assay type: biochemical
# T1 sequence (B4EYG1 1-1142): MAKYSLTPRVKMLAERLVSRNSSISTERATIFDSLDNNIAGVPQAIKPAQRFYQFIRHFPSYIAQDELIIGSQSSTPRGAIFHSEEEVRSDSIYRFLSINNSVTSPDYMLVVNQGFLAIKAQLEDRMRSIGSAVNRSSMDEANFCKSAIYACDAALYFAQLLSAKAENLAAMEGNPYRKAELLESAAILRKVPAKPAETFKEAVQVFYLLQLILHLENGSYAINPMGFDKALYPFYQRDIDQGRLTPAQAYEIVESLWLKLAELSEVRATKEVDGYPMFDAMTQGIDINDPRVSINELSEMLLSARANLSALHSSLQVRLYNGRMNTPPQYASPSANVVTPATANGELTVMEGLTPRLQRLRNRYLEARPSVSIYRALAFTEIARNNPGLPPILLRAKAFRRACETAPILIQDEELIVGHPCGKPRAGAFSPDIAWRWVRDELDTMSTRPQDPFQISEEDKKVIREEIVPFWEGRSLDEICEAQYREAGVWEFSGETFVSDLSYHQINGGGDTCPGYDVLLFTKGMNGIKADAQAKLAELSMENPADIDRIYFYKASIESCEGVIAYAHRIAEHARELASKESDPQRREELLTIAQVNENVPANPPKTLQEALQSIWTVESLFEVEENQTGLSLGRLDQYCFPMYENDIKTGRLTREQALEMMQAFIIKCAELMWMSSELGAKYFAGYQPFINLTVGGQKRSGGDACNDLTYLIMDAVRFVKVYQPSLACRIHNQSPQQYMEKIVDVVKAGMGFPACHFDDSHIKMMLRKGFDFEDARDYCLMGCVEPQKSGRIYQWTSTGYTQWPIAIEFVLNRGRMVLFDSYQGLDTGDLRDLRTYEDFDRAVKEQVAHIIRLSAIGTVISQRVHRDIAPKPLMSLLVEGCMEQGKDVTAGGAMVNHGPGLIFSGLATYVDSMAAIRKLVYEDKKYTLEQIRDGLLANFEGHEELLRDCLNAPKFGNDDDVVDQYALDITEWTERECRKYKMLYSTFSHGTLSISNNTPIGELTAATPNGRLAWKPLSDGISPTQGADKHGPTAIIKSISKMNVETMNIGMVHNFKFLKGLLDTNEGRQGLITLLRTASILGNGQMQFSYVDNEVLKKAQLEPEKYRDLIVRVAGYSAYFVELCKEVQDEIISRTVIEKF
# T1 sequence (B4EYG0 1-316 partner): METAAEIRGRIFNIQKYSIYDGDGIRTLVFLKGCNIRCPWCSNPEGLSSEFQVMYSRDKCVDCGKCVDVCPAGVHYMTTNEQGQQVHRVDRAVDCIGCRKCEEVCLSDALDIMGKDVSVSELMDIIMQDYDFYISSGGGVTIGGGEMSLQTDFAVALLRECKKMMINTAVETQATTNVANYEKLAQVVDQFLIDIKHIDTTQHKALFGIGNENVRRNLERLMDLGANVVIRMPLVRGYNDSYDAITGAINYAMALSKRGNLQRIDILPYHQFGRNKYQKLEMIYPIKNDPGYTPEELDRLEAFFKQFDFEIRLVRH
# CutC (choline TMA lyase) [2] = molecular target: T1, CutC (choline TMA lyase); test: d9-TMA production from d9-choline in cutC/D-transformed E. coli lysate; assay type: cell-based
# CutC (choline TMA lyase) [3] = molecular target: T1, CutC (choline TMA lyase); test: d9-TMA production from d9-choline in cutC/D-transformed E. coli lysate, LC/MS/MS; assay type: biochemical
# YeaW = molecular target: T2, YeaW (Escherichia coli, UniProt P0ABR7); test: d9-TMA production by purified YeaW/X, LC/MS/MS; assay type: biochemical
# T2 sequence (P0ABR7 1-374): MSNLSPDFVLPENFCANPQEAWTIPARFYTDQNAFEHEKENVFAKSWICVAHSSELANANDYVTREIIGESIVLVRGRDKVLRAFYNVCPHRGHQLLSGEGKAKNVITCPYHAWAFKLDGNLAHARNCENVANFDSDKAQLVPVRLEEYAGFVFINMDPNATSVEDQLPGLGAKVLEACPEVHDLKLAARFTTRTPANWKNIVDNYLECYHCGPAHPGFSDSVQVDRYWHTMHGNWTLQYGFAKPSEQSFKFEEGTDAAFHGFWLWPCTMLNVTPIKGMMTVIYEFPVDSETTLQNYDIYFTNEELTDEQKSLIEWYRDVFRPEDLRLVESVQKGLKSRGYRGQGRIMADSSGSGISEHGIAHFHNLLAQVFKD
# CutC (choline TMA lyase) [4] = molecular target: T1, CutC (choline TMA lyase); test: d9-TMA production by purified CutC and CutD, LC/MS/MS; assay type: biochemical
compound,measurement,setting,value
"CC(C)(C)CCO [DMB, 3,3-dimethyl-1-butanol]",IC50,CutC (choline TMA lyase) [1],~10 µM
"C[P+](C)(C)CCO [P-choline, (2-Hydroxyethyl)(trimethyl)phosphonium]",d9-TMA production from d9-choline in cutC/D-transformed E. coli lysate (activity),CutC (choline TMA lyase) [2],phosphonium analogue of choline (P-choline) showed a unique effect by augmenting cutC/D choline TMA lyase activity
"C[Si](C)(C)CCO [TMSi-ETOH, 2-(trimethylsilyl)ethanol]",IC50,CutC (choline TMA lyase) [3],~10 µM
C[N+](C)(C)CC(O)CC(=O)[O-] (centres unmarked) [carnitine],"d9-TMA production by purified YeaW/X, LC/MS/MS",YeaW,Purified YeaW/X showed enzymatic cleavage of d9-carnitine
C[N+](C)(C)CCO [choline],"d9-TMA production by purified CutC and CutD, LC/MS/MS",CutC (choline TMA lyase) [4],both purified polypeptides showed dose-dependent inhibition in TMA production from either choline or GPC substrates
